Experimental data: US20260061085A1, “CYCLIC PEPTIDE AND PREPARATION METHOD THEREFOR, AND COMPLEX COMPRISING SAME AND USE THEREOF” (HEXIN (SUZHOU) PHARMACEUTICAL TECHNOLOGY CO., LTD., priority 2022, published 2026)
Square brackets hold non-standard residues; d marks the D form. Peptide text beside a SMILES is read from it. NMeN = CN[C@@H](CC(N)=O)C(=O)O; Orn = NCCC[C@H](N)C(=O)O; Dab = NCC[C@H](N)C(=O)O; Sar = CNCC(=O)O

B1: APN21-Cy3 fluorescent peptide (Example 21) (peptide)
peptide: cyclo(N[Sar]RTKY)
modifications: not fully specified (residue 5); also: Cy3 dye attached via Cy3-NHS, site not given here
notes: also called cyclo(NSarRTKY)

Columns and labels:
HT-1080 cells = assay: Relative cell uptake of Cy3 fluorescent peptides by HT-1080 cells; format: cell-based, human; conditions: Cy3 fluorescent peptide, 37° C. 30 min, multiple of KE5-Cy3 uptake taken as 1.00
Protocol: The binding affinity of the polypeptides in the examples and comparative examples to an HT-1080 cell line was identified through cell uptake studies.
The human fibrosarcoma cell line HT-1080 was cultured in Dulbecco's Modified Eagle Medium (DMEM) (Gibco) mixed with 10% sterile filtered fetal bovine serum (FBS) and 1% penicillin-streptomycin antibiotic solution. The cell culture was maintained in a controlled environment at 37° C. and 5% CO2, and subculture was performed every 3-4 days. 24 hours prior to the experiment, cells were seeded in a 96-well plate (5000 cells per well) and cultured overnight until the cells adhered to a wall. Before the experiment, cells were washed twice with […] of phosphate-buffered saline (PBS) to remove a growth medium.
Purification is performed through HPLC.
HT-1080 cells were treated with KE5-Cy3 fluorescent peptide of Comparative Example 1.
After incubation at 37° C. for 30 min, the cells were washed twice with PBS, an intracellular fluorescence intensity was measured using a fluorescence microplate reader (with an […]) to evaluate the uptake of KE5-Cy3 fluorescent peptide by HT-1080 cells.
(§1) 10 μL of CCK-8 were added to each group of cells and incubated for 4 h, the cells were then read using a microplate reader (with a wavelength of 490 nm), and errors in fluorescence intensity of each group of cells caused by difference in a number of cells was corrected by CCK-8.
Each group was subjected to the above operation three times to determine an optimal concentration for the uptake of KE5-Cy3 fluorescent peptide by HT-1080 cells.
(§2) HT-1080 cells were treated with the APN-Cy3 fluorescent peptide of each of the Examples, wherein a concentration of each APN-Cy3 fluorescent peptide was an optimal concentration determined by KE5-Cy3 fluorescent peptides of Comparative Example 1 according to the uptake by the HT-1080 cells.
(§3) After incubation at 37° C. for 30 min, the cells were washed twice with PBS, an intracellular fluorescence intensity was measured using a fluorescence microplate reader (with an […]) to evaluate the uptake of APN-Cy3 fluorescent peptide by HT-1080 cells.
A relative cell uptake (RCU) for each APN-Cy3 fluorescent peptide relative to the KE5-Cy3 fluorescent peptide was calculated using the following formula: […]

[1] = Stability by in vitro constant temperature (37° C.) incubation in mouse plasma, LC-MS/MS; format: in vitro ADME
Protocol: (§4) The experiment was carried out by using an in vitro constant temperature (37° C.) incubation method to study the stability of the cyclic peptide APN21 of Example 21 and the cyclic peptide KE5 of Comparative Example 1 in mouse plasma or PBS (1.0 μg/mL). The two cyclic peptides were dissolved in 1 mL of mouse […], respectively, and incubated at 37° C. for 0 h, 0.5 h, 1 h, 4 h, 24 h, and 48 h, and a percentage of drug remaining was then measured and determined. PBS was used as a negative control group. Peak areas of the drug and an internal standard were measured using an LC-MS/MS method, and ratios of the peaks were used instead of the drug concentration for calculation.

[2] = Stability by in vitro constant temperature (37° C.) incubation in PBS, LC-MS/MS; format: physicochemical
Protocol: as §4

[3] = system: HT-1080 tumor-bearing mice; assay: Small-animal PET/CT imaging of HT-1080 tumor-bearing mice with CD13 blocking; format: in vivo; conditions: co-injected with unlabeled NGR peptide 15 mg/kg, tail vein, 0.5, 1 and 2 hours after injection, versus unblocked APN21 Group
Protocol: HT-1080 cells were taken from normal NCr nude mice (18-25 g, 4-6 weeks old, n=3), and 2λ10^6 cells were implanted subcutaneously in right shoulders of mice in a mixture of 200 μL phosphate buffer and matrix gel (v/v, 1/1). […] PET/CT and image analysis were performed using a small-animal NovclMedcal PET/CT scanner (Novel Medical Equipment Ltd., Beijing). Maximum tangential and radial half-widths of the scanner in a center of field of view were 1.5 mm, and at an edge of the field of view were 1.8 mm. […] Static PET/CT images were obtained for 15 min at 0.5, 1, and 2 hours after intravenous injection. […] Static PET/CT images were obtained for 15 min at 0.5, 1, and 2 hours after intravenous injection. […] Static PET/CT images were obtained for 15 min at 0.5, 1, and 2 hours after intravenous injection. […] […] PET and CT images were acquired using NMSoft workstation software (Novel Medical Equipment Ltd., Beijing), and data were given as a percentage of injected dose per gram of tissue or organ (ID/g), and were determined through decay correction for each sample (standardized to a known weight of the injected dose).

[4] = biological target: T1, Aminopeptidase N (APN, also known as CD13) (human, UniProt P15144 2-967); assay: Cy3 fluorescence uptake by HT-1080 cells, 37 C 30 min, microplate reader, CCK-8 corrected, relative to KE5-Cy3
T1 construct: whole, on cells; The assay itself used HT-1080 cells (endogenous expression, not transfected); also called CD13 protein; CD13 receptor
T1 sequence (P15144 2-967): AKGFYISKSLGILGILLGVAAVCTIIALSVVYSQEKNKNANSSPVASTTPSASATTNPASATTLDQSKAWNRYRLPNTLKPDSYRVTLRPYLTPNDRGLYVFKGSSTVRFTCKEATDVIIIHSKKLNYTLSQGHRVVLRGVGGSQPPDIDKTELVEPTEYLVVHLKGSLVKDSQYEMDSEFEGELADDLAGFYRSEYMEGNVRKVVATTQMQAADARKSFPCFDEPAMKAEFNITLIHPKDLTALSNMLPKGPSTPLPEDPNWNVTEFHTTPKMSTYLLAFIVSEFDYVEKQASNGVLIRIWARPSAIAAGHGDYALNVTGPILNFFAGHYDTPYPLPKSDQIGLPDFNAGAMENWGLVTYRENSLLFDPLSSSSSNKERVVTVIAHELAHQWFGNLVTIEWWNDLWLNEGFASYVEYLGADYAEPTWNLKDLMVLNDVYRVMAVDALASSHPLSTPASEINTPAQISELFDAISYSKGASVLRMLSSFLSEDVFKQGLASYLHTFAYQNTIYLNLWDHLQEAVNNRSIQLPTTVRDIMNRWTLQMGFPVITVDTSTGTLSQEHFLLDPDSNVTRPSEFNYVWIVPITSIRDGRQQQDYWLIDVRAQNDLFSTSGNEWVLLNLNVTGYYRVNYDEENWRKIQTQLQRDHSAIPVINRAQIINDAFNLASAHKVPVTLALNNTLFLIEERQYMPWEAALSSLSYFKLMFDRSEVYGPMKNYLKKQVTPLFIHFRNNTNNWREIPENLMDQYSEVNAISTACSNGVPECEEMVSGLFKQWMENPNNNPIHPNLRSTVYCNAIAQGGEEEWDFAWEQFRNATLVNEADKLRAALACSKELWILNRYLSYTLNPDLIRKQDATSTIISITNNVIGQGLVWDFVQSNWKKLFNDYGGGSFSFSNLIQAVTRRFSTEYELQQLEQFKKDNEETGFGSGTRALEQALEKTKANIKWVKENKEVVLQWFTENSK
Protocol: as §2, §3, §1

[5] = 0.5 h, read-out: percentage of drug remaining
[6] = 1 h, read-out: percentage of drug remaining
[7] = 4 h, read-out: percentage of drug remaining
[8] = 24 h, read-out: percentage of drug remaining
[9] = 48 h, read-out: percentage of drug remaining

Molecule	RCU (relative cell uptake) (HT-1080 cells)	further results
cyclo(NGRTCV) (cyclic; circular) [Example 11]	0.92	–
cyclo(NmeGRTcY) (cyclo([NMeN]GRT[dC]Y)) [Example 28]	0.62	–
cyclo(NGRTKf) (cyclo(NGRTK[dF]); SMILES C[C@@H](O)[C@@H]1NC(=O)[C@H](CCCNC(=N)N)NC(=O)CNC(=O)[C@H](CC(N)=O)NC(=O)[C@@H](Cc2ccccc2)NC(=O)[C@H](CCCCN)NC1=O) [Example 17]	0.49	–
N=C(N)NCCC[C@@H]1NC(=O)CNC(=O)[C@H](CC(N)=O)NC(=O)[C@H](CCCCN)NC(=O)[C@H](CCC(=O)O)NC1=O [Comparative Example 1, cyclo(NGREK), reference compound] (cyclo(EKNGR))	–	percentage of drug remaining ([1]; 0 h): 100%; remaining at 0.5 h, 1 μg/mL [1, 5]: 94.8%; remaining at 1 h, 1 μg/mL [1, 6]: 89.4%; remaining at 4 h, 1 μg/mL [1, 7]: 80.2%; remaining at 24 h, 1 μg/mL [1, 8]: 39.8%; remaining at 48 h, 1 μg/mL [1, 9]: 12.4%; percentage of drug remaining ([2]; 0 h): 100%; remaining at 0.5 h, 1 μg/mL [2, 5]: 99.1%; remaining at 1 h, 1 μg/mL [2, 6]: 96.6%; remaining at 4 h, 1 μg/mL [2, 7]: 91.4%; remaining at 24 h, 1 μg/mL [2, 8]: 73.4%; remaining at 48 h, 1 μg/mL [2, 9]: 42.7%
cyclo(NGRTCF) (cyclic; circular) [Example 12]	0.82	–
cyclo(NmeGRTDabY) (cyclo([NMeN]GRT[Dab]Y); SMILES C[C@@H](O)[C@@H]1NC(=O)[C@H](CCCNC(=N)N)NC(=O)CNC(=O)[C@H](CC(N)=O)N(C)C(=O)[C@H](Cc2ccc(O)cc2)NC(=O)[C@H](CCN)NC1=O) [Example 26]	0.41	–
cyclo(NGRTCG) (cyclic; circular) [Example 13]	0.49	–
cyclo(NSarRTOrnY) (cyclo(N[Sar]RT[Orn]Y); SMILES C[C@@H](O)[C@@H]1NC(=O)[C@H](CCCNC(=N)N)NC(=O)CN(C)C(=O)[C@H](CC(N)=O)NC(=O)[C@H](Cc2ccc(O)cc2)NC(=O)[C@H](CCCN)NC1=O) [Example 23]	1.20	–
cyclo(NmeGRTOrnY) (cyclo([NMeN]GRT[Orn]Y); SMILES C[C@@H](O)[C@@H]1NC(=O)[C@H](CCCNC(=N)N)NC(=O)CNC(=O)[C@H](CC(N)=O)N(C)C(=O)[C@H](Cc2ccc(O)cc2)NC(=O)[C@H](CCCN)NC1=O) [Example 27]	0.37	–
cyclo(NSarRTDabY) (cyclo(N[Sar]RT[Dab]Y); SMILES C[C@@H](O)[C@@H]1NC(=O)[C@H](CCCNC(=N)N)NC(=O)CN(C)C(=O)[C@H](CC(N)=O)NC(=O)[C@H](Cc2ccc(O)cc2)NC(=O)[C@H](CCN)NC1=O) [Example 24]	0.57	–
cyclo(NGRTCY) (cyclic; circular) [Example 14]	1.05	–
cyclo(NmeGRTKY) (cyclo([NMeN]GRTKY); SMILES C[C@@H](O)[C@@H]1NC(=O)[C@H](CCCNC(=N)N)NC(=O)CNC(=O)[C@H](CC(N)=O)N(C)C(=O)[C@H](Cc2ccc(O)cc2)NC(=O)[C@H](CCCCN)NC1=O) [Example 20]	0.78	–
cyclo(NGRTKG) (cyclic; circular) [Example 8]	1.14	–
cyclo(NGRDK) (cyclic; circular) [Example 1]	0.65	–
cyclo(NGRTCE) (cyclic; circular) [Example 10]	0.77	–
cyclo(NGRTKF) (cyclic; circular) [Example 7]	0.56	–
^68Ga-APN21-Bn-SCN-NOTA: ^68Ga-labelled conjugate of cyclic peptide APN21 (Example 21) with NOTA-Bn-SCN chelator (cyclo(N[Sar]RTKY); not fully specified (residue 5); also: 68Ga-NOTA-Bn-SCN chelator conjugated, site not given here)	–	PET/CT signal intensity (tumor uptake) in APN21-Blocking Group [3]: significantly weaker than that of the unblocked APN21 group
cyclo(NSarRTcY) (cyclo(N[Sar]RT[dC]Y); SMILES C[C@@H](O)[C@@H]1NC(=O)[C@H](CCCNC(=N)N)NC(=O)CN(C)C(=O)[C@H](CC(N)=O)NC(=O)[C@H](Cc2ccc(O)cc2)NC(=O)[C@@H](CS)NC1=O) [Example 25]	0.72	–
B1	–	RCU (relative cell uptake, KE5-Cy3 = 1.00) [4]: 5.68 fold of KE5-Cy3
